The source of these data is patent US20100311782A1, “SUBSTITUTED PIPERIDINYLPROPANOIC ACID COMPOUNDS AND METHODS OF THEIR USE” (priority 2009, published 2010).

Several values for one entry are separate records, joined by “and”; a condition that tells them apart may be missing. Equal entries are not always repeated. Structures can show the parent of a compound that is named as a salt. Where two headings read alike, the source gives them in different places.

Series [1] deals with T1, cloned human μ opioid receptor (Homo sapiens, UniProt P35372).
T1 construct: expressed in transfected cells
Description: Receptor binding, [3H]diprenorphine displacement, mu opioid receptor. Conditions: for Ki: [3H]diprenorphine, cloned human mu opioid receptor; for DOR/MOR Ratio: ratio of DOR Ki to MOR Ki.

The target in series [2] is T2, cloned human δ opioid receptor (Homo sapiens, UniProt P41143).
T2 construct: expressed in transfected cells
Briefly: Receptor binding, [3H]diprenorphine displacement, delta opioid receptor.

Series [3] concerns morphine-slowed gastrointestinal transit (GIT). Briefly: Mouse Gastrointestinal Transit (GIT) Assay, antagonism of the anti-transit effect of morphine. The format is in vivo, mice. Conditions: for recovery of the pre-opioid treatment efficacy of GIT: one hour after a 3 mg/kg dose, morphine 3 mg/kg s.c. The method, then: Male Swiss-Webster mice (25-30 g) obtained from Ace Animals (Boyertown, Pa.) were used for all experiments. Mice were housed 4/cage in polycarbonate cages with food and water available ad libitum. Mice were on a 12 hours light:dark schedule with lights on at 6:30 a.m. All experiments were performed during the light cycle. Mice were fasted the night before the experiment, with water available ad libitum.
Compounds were administered in a volume of 0.1 ml/10 g of body weight. Morphine (3 mg/kg) or vehicle (0.9% saline) was administered s.c. 35 min to induce slowed GIT, prior to determination of GIT. Ten minutes after the morphine treatment, mice were administered 0.2 ml of a charcoal meal orally. The charcoal meal consisted of a slurry of charcoal, flour, and water in the following ratio (1:2:8, w:w:v). Twenty-five minutes after receiving the charcoal meal, the mice were euthanized with CO2 and GIT was determined.
GIT is expressed as % GIT by the following formula: […]
For each test agent, a value for % Antagonism (% A) was determined for the 2 and 6 hr antagonist pretreatment. Using the mean % GIT for each treatment group, % A was calculated using the following formula: […]

A short description of another series: Dog PK. The series is classed as in vivo. Particulars: for AUC0-t: 6 mg/kg, individual dogs; for bioavailability: single PO dose of 6 mg/kg, read-out: oral bioavailability (F); for AUC: mean of three dogs. The method, then:
The PO dose formulations were prepared on the day of dosing by dissolving 33.16 mg of test material in 60 mL of sterile water to achieve a concentration of 0.5526 mg/mL total compound (0.5 mg/mL test compound). The dosing solution was vortexed to ensure homogeneity and dissolution.
The dose formulation was administered via oral gavage per facility SOPs. Each dog received a single PO dose of 6 mg/kg.
(§1) All blood samples were collected from a peripheral vessel. Approximately 0.3 mL blood was collected at each time point. All blood samples were placed on wet ice until processed for plasma.
Blood samples were processed for plasma by centrifugation at approximately 5° C. Plasma samples were stored in polypropylene tubes, quick frozen over dry ice and kept at −70±10° C. until LC/MSMS analysis.
(§2) Plasma concentrations were determined by high performance liquid chromatography with tandem mass spectrometric detection (LC/MS/MS) after protein precipitation.
(§3) Plasma concentration versus time data was analyzed by non-compartmental approaches using the WinNonlin software program (version 5.0.1, Pharsight, Mountain View, Calif.).

The nature of a further series: Primate PK. Particulars: for AUC0-t / Cmax: 1 mg/kg; for bioavailability: single PO dose of 1 mg/kg, read-out: oral bioavailability (F). The format is in vivo, monkey. How it is done: The dose formulations were prepared on the day of dosing by dissolving 33.16 mg of test material in 60 mL of sterile water to achieve a concentration of 0.5526 mg/mL total compound (0.5 mg/mL test compound). The dosing solution was vortexed to ensure homogeneity and dissolution.
The dose formulation was administered via oral gavage per facility SOPs. Each monkey received a single PO dose of 1 mg/kg as a 0.5% MC suspension.
as §1
Blood samples were processed for plasma by centrifugation at approximately 5° C. Plasma samples were be stored in polypropylene tubes, quick frozen over dry ice and kept at −70±10° C. until LC/MSMS analysis.
as §2, §3

The nature of the next series: Rat PK. The format is in vivo. Conditions: rats; for bioavailability: male, Sprague-Dawley, rat, plasma, read-out: oral bioavailability (F). How it is done:
Jugular vein cannulated (JVC) male Sprague-Dawley (SD) rats (Charles River, Raleigh, N.C.) were housed individually in polycarbonate cages on alpha-dri bedding in an environmentally controlled room with a 12 hour light-dark cycle. Rats were allowed to acclimate for 3-5 days prior to the study. Animals were fasted overnight prior to drug administration and were fed after the 4 h blood collection.
The suspension used for PO administration was prepared at a nominal concentration of 2 mg/mL of test agent in 0.5% methylcellulose with 0.1% Tween®80.
Two groups of three JVC rats each received a single PO dose of 10 mg/kg. The PO dose was administered by oral gavage in a dosing volume of 5 mL/kg. Blood samples (0.6 mL) were collected via jugular vein cannula at predose, 15 and 30 minutes and 1, 2, 4, 6, 8 and 24 h postdose in EDTA-containing tubes. Plasma was obtained by centrifugation at 3000 rpm for 15 minutes. The samples were stored at −20° C. until analysis.
Plasma aliquots were deproteinized with internal standard solution in acetonitrile. The samples were vortexed, centrifuged and an aliquot of the supernatant was mixed with water. The diluted aliquot was then analyzed.
as §2
Model-independent analyses were performed to evaluate the pharmacokinetics. The area under the concentration-time curve (AUC) and the area under the first moment curve (AUMC) were calculated from zero to 6 or 8 hours post-dose using the linear trapezoidal method with extrapolation to infinity. The terminal elimination rate constant (kel) and half-life (t1/2) were calculated by linear least-squares regression of log-transformed concentration-time data. Systemic plasma clearance (CLs) was computed from Dose/AUC. Volume of distribution at steady state (Vdss) was calculated from Dose·AUMC/AUC^2. WinNonlin® Professional software (Pharsight Corporation) was used to generate all pharmacokinetic data.

Series [4] deals with T3, cloned human κ opioid receptor (Homo sapiens, UniProt P41145).
T3 construct: expressed in transfected cells
Description: Receptor binding, [3H]diprenorphine displacement, kappa opioid receptor.

The mark [5] stands for this setting: individual monkeys, PO 1 mg/kg, lithium salt.
The mark [6] stands for this setting: [3H]diprenorphine, cloned human kappa opioid receptor, read-out: KOR Ki.

T1 sequence (P35372 whole entry): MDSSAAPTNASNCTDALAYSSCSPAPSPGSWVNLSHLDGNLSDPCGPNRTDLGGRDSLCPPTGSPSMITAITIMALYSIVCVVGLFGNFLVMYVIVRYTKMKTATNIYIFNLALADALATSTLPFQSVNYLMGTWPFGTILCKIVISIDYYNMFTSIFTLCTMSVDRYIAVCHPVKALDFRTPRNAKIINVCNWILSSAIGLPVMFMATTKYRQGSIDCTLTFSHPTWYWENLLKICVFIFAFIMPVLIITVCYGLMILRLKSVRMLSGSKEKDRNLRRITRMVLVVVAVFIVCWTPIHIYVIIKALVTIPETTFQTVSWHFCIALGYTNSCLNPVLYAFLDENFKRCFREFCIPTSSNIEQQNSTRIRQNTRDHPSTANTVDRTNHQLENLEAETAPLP
T2 sequence (P41143 whole entry): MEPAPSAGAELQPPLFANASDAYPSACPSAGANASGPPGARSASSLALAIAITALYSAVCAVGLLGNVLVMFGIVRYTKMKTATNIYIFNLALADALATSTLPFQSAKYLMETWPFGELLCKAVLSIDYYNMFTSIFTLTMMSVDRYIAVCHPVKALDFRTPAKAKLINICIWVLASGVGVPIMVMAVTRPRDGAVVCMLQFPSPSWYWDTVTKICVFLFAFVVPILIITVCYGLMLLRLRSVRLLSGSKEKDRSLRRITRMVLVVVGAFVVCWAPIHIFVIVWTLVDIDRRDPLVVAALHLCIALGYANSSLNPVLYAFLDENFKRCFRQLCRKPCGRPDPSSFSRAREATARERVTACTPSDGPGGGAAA
T3 sequence (P41145 whole entry): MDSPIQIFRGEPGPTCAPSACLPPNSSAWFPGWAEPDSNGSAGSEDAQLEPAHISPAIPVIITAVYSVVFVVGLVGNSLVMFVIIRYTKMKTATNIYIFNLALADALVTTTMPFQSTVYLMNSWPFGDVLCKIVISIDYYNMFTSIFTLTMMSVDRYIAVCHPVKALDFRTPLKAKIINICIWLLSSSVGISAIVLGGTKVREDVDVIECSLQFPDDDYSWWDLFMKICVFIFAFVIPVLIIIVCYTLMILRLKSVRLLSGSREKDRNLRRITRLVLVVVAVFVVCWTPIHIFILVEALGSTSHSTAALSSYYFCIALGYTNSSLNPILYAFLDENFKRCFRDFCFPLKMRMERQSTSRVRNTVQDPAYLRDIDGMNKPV

`C[C@H]1CN(C[C@H](Cc2ccccc2)C(=O)[O-])CC[C@@]1(C)c1cccc(C(N)=O)c1.[Li+]` [Example 1, (S)-2-benzyl-3-((3R,4R)-4-(3-carbamoylphenyl)-3,4-dimethylpiperidin-1-yl)propanoic acid, lithium salt]: the results for the inhibition constant (Ki) in series [1] (MOR Ki) and in series [2] (DOR Ki) were 0.0112 µM and 0.34 µM, respectively. Also, the “DOR/MOR Ratio” value in series [1] is 30. In series [3] (mice, 3 mg/kg orally, 0-6 h), the “AUC values (h * percent antagonism (0-6 h))” value was 408.8 h * percent antagonism. The “recovery of the pre-opioid treatment efficacy of GIT” value in series [3] (mice) is around 90%. The “AUC value (GIT antagonism) times greater than that of Example C-2” value in series [3] (mouse, in vivo) is listed as 2.1 times. Moreover, the AUC0-t is 0.183 µg·h/mL in the series “Dog PK” (dog, in vivo, po, PO 6 mg/kg, read-out: AUC0-t); 0.25 µg·h/mL and 0.344 µg·h/mL in “Dog PK” (PO 6 mg/kg, lithium salt); 0.087 µg·h/mL and 0.132 µg·h/mL in “Primate PK” (setting [5]); 0.103 µg·h/mL in “Primate PK” (monkey, in vivo, po, individual monkeys, PO 1 mg/kg, read-out: AUC0-t). In addition, the bioavailability amounted to 30% in the series “Dog PK” (dog, in vivo, dogs) and 10% in the series “Primate PK” (monkey, in vivo, monkeys). This compound showed an AUC in the series “Dog PK” (dog, in vivo, PO 6 mg/kg) of 0.259 ± 0.081 µg·h/mL. Moreover, the “improvement in the mean AUC value as compared to Example C-3” value in the series “Dog PK” (dogs, PO 6 mg/kg) is recorded as “approximately 4 fold”. Moreover, in “Dog PK” (dogs, PO 6 mg/kg), the “increase in mean concentration in plasma as compared to C-3” value is “approximately 3 fold”. The peak concentration (Cmax) in the series “Primate PK” (setting [5]) was 0.0295 µg/mL and 0.0208 µg/mL and 0.0446 µg/mL; in the series “Primate PK” (monkey, in vivo, po, mean of three monkeys, PO 1 mg/kg, read-out: Mean Cmax ± SD), 0.032 ± 0.012 µg/mL; in the series “Primate PK” (monkey, in vivo, po, monkeys, PO 1 mg/kg, mean ± SD, text of b284, read-out: Cmax), 0.032 ± 0.012 µg/mL. In addition, the “fold higher maximum plasma concentration (Cmax) as compared to Example C-3” value in “Primate PK” (monkeys, PO 1 mg/kg) stood at 18.3 fold.
As to `C[C@H]1CN(C[C@H](Cc2ccccc2)C(=O)[O-])CC[C@@]1(C)c1cccc(C(N)=O)c1.[Na+]` [Example 2, (S)-2-benzyl-3-((3R,4R)-4-(3-carbamoylphenyl)-3,4-dimethylpiperidin-1-yl)propanoic acid, sodium salt], the inhibition constant (Ki) came to 0.0173 µM in series [1] (MOR Ki) and 0.308 µM in series [2] (DOR Ki). Further, the “DOR/MOR Ratio” value in series [1] came to 18. Further, the bioavailability in “Rat PK” (single PO dose of 10 mg/kg) is 11%.
Consider `C[C@H]1CN(C[C@H](Cc2ccccc2)C(=O)O)CC[C@@]1(C)c1cccc(C(N)=O)c1.O=C(O)C(F)(F)F` [Example 3, (S)-2-benzyl-3-((3R,4R)-4-(3-carbamoylphenyl)-3,4-dimethylpiperidin-1-yl)propanoic acid, trifluoroacetate salt], for which the Ki was 0.0124 µM in series [1] (MOR Ki) and 0.397 µM in series [2] (DOR Ki). Also, the “DOR/MOR Ratio” value in series [1] is 32. The bioavailability in the series “Rat PK” (single PO dose of 10 mg/kg) came to 8%. Besides, in the series “Rat PK” (PO 10 mg/kg), the “improvement in oral bioavailability as compared to Example C-2” value was “approximately 8 fold”.
With `C[C@H]1CN(C[C@H](Cc2ccccc2)C(=O)O)CC[C@@]1(C)c1cccc(C(N)=O)c1` [Example 4, (S)-2-Benzyl-3-((3R,4R)-4-(3-carbamoylphenyl)-3,4-dimethylpiperidin-1-yl)propanoic acid], the Ki in series [1] (MOR Ki) is 0.014 µM; in series [2] (DOR Ki), 0.46 µM. In addition, the “DOR/MOR Ratio” value in series [1] came out at 33.
Turning to `C[C@H]1CN(C[C@H](Cc2ccccc2)C(=O)O)CC[C@@]1(C)c1cccc(C(N)=O)c1` [Example 5, (S)-2-benzyl-3-((3R,4R)-4-(3-carbamoylphenyl)-3,4-dimethylpiperidin-1-yl)propanoic acid, oxalic acid salt], the Ki is 0.0169 µM in series [1] (MOR Ki), 0.31 µM in series [2] (DOR Ki) and above 10 µM in series [4].
Take `C[C@H]1CN(C[C@H](Cc2ccccc2)C(=O)O)CC[C@@]1(C)c1cccc(C(N)=O)c1` [Example 6, (S)-2-benzyl-3-((3R,4R)-4-(3-carbamoylphenyl)-3,4-dimethylpiperidin-1-yl)propanoic acid, succinic acid salt]: the Ki turned out to be 0.0181 µM in series [1] (MOR Ki) and 0.527 µM in series [2] (DOR Ki).
As for `C[C@H]1CN(C[C@@H](Cc2ccccc2)C(=O)NCC(=O)O)CC[C@@]1(C)c1cccc(C(N)=O)c1.O=C(O)C(F)(F)F` [Example C-2, [[2(R)-[[4(R)-(3-Amidophenyl)-3(R),4-dimethyl-1-piperidinyl]methyl]-1-oxo-3-phenylpropyl]amino]acetic acid, trifluoromethylacetate salt, reference compound], the “times more potent than Example 1 as an MOR antagonist in the opioid receptor binding assay” value in series [1] (C-2 versus Example 1, Table I) amounted to 4.3 times. Also, the inhibition constant (Ki) came to 0.0026 µM in series [1] (read-out: MOR Ki), 0.085 µM in series [2] (read-out: DOR Ki) and 0.66 µM in series [4] (setting [6]). The “DOR/MOR Ratio” value in series [1] is recorded as 33. For the same compound, the “recovery of the pre-opioid treatment efficacy of GIT” value in series [3] (mice) came out at 50%. For the same compound, the “AUC values (h * percent antagonism (0-6 h))” value in series [3] (mouse, in vivo, po, 3 mg/kg) is 191.5 h * percent antagonism. Moreover, the “oral bioavailability (F)” value in “Rat PK” (single PO dose of 10 mg/kg) is on record as around 1%.
For `CC1CN(CC(Cc2ccccc2)C(=O)NCC(=O)O)CCC1(C)c1cccc(C(N)=O)c1` [Example C-3, [[2(R)-[[4(R)-(3-Amidophenyl)-3(R),4-dimethyl-1-piperidinyl]methyl]-1-oxo-3-phenylpropyl]amino]acetic acid, sodium salt, reference compound], the Ki turned out to be 0.0029 µM in series [1] (MOR Ki), 0.098 µM in series [2] (DOR Ki) and 0.93 µM in series [4] (setting [6]). Besides, the “DOR/MOR Ratio” value in series [1] was found to be 34. For the same compound, the AUC0-t was 0.081 µg·h/mL in “Dog PK” (dog, plasma, po, PO 6 mg/kg, read-out: AUC0-t); 0.054 µg·h/mL and 0.053 µg·h/mL in the series “Dog PK” (PO 6 mg/kg, sodium salt). Besides, the bioavailability in “Dog PK” (dog, plasma, dogs) is 11%; in “Primate PK” (monkey, plasma, monkeys), below 2%. The compound also had an AUC in the series “Dog PK” (dog, plasma, PO 6 mg/kg) of 0.063 ± 0.016 µg·h/mL. Further, the maximum concentration (Cmax) in the series “Primate PK” (individual monkeys, PO 1 mg/kg, sodium salt) was 0.00181 µg/mL and 0.00174 µg/mL; in the series “Primate PK” (monkey, plasma, po, individual monkeys, PO 1 mg/kg, read-out: Cmax), 0.0017 µg/mL; in the series “Primate PK” (monkey, plasma, po, mean of three monkeys, PO 1 mg/kg, read-out: Mean Cmax ± SD), 0.00175 ± 6e-05 µg/mL.
